ChEMBL document CHEMBL4340516, “Synthesis and antitumor activity of novel steroidal imidazolium salt derivatives” (Eur J Med Chem, 2019)

Key:
Format in all cases: functional, cell-based
[1] = system: HL-60; test: Antiproliferative activity against human HL60 cells assessed as reduction in cell viability incubated for 48 hrs by MTS assay; conditions: HL-60, 48 h
[2] = system: SMMC-7721; test: Antiproliferative activity against human SMMC7721 cells assessed as reduction in cell viability incubated for 48 hrs by MTS assay; conditions: SMMC-7721, 48 h
[3] = system: MCF7; test: Antiproliferative activity against human MCF7 cells assessed as reduction in cell viability incubated for 48 hrs by MTS assay; conditions: MCF7, 48 h
[4] = system: SW480; test: Antiproliferative activity against human SW480 cells assessed as reduction in cell viability incubated for 48 hrs by MTS assay; conditions: SW480, 48 h
[5] = system: A549; test: Antiproliferative activity against human A549 cells assessed as reduction in cell viability incubated for 48 hrs by MTS assay; conditions: A549, 48 h

Compound	IC50 [1] [µM]	IC50 [2] [µM]	IC50 [3] [µM]	IC50 [4] [µM]	IC50 [5] [µM]
CC(=O)O[C@H]1CC[C@@]2(C)C(=CC[C@H]3[C@@H]4CC[C@H](n5cc[n+](Cc6ccccc6Br)c5)[C@@]4(C)CC[C@@H]32)C1	1.48	3.83	4.84	6.87	6.52
CC(=O)O[C@H]1CC[C@@]2(C)C(=CC[C@H]3[C@@H]4CC[C@H](n5cc[n+](CC(=O)c6cccc(Br)c6)c5)[C@@]4(C)CC[C@@H]32)C1	4.35	5.47	4.88	7.26	7.2
c1c[nH]cn1 [IMIDAZOLE]	> 20	> 20	> 20	> 20	> 20
C[C@]12CC[C@H]3[C@@H](CC=C4C[C@@H](O)CC[C@@]43C)[C@@H]1CC[C@@H]2n1cc[n+](CC(=O)c2ccc3ccccc3c2)c1	2	3.5	4.38	5.59	9.69
C[C@@H]1CC[C@@]2(OC1)O[C@H]1C[C@H]3[C@@H]4CC=C5C[C@@H](n6cc[n+](CC(=O)c7ccccc7)c6)CC[C@]5(C)[C@H]4CC[C@]3(C)[C@H]1[C@@H]2C	1.18	2.14	5.66	7.96	1.86
C[C@@H]1CC[C@@]2(OC1)O[C@H]1C[C@H]3[C@@H]4C[C@H](n5cc[n+](CC(=O)c6ccccc6)c5)[C@]56C[C@H]5CC[C@]6(C)[C@H]4CC[C@]3(C)[C@H]1[C@@H]2C	2.69	7.38	5.5	7.39	7.76
C[C@]12CC[C@H]3[C@@H](CC=C4C[C@@H](O)CC[C@@]43C)[C@@H]1CC[C@@H]2n1cc[n+](Cc2ccc3ccccc3c2)c1	2.68	4.41	5.08	6.47	7.87
CC(=O)O[C@H]1C(=O)[C@@]2(C)[C@H]([C@H](OC(=O)c3ccccc3)[C@]3(O)C[C@H](OC(=O)[C@H](O)[C@@H](NC(=O)c4ccccc4)c4ccccc4)C(C)=C1C3(C)C)[C@]1(OC(C)=O)CO[C@@H]1C[C@@H]2O [PACLITAXEL]	< 0.008	< 0.008	< 0.008	< 0.008	< 0.008
Cc1cc2ncn([C@@H]3CC[C@@]4(C)C(=CC[C@H]5[C@@H]6CC[C@H]([C@H](C)CCCC(C)C)[C@@]6(C)CC[C@@H]54)C3)c2cc1C	0.18	> 20	> 20	> 20	> 20
CC(C)CCC[C@@H](C)[C@H]1CC[C@H]2[C@@H]3CC=C4C[C@@H](n5cc[n+](CC(=O)c6ccc7ccccc7c6)c5)CC[C@]4(C)[C@H]3CC[C@]12C	7.26	2.1	> 20	11.3	9.65
COc1ccc(C(=O)C[n+]2ccn([C@H]3CC[C@@]4(C)C(=CC[C@H]5[C@@H]6C[C@@H]7O[C@]8(CC[C@@H](C)CO8)[C@@H](C)[C@@H]7[C@@]6(C)CC[C@@H]54)C3)c2)cc1	0.94	1.61	1.96	4.15	1.21
CC(C)CCC[C@@H](C)[C@H]1CC[C@H]2[C@@H]3CC=C4C[C@H](n5cc[n+](CC(=O)c6cccc(Br)c6)c5)CC[C@]4(C)[C@H]3CC[C@]12C	9.91	1.7	8.51	6.33	7.22
C[C@@H]1CC[C@@]2(OC1)O[C@H]1C[C@H]3[C@@H]4CC=C5C[C@H](n6c[n+](CC(=O)c7ccccc7)c7ccccc76)CC[C@]5(C)[C@H]4CC[C@]3(C)[C@H]1[C@@H]2C	1.19	1.81	2.49	2.59	2.55
CC(C)CCC[C@@H](C)[C@H]1CC[C@H]2[C@@H]3C[C@H](n4cc[n+](CC(=O)c5ccc6ccccc6c5)c4)[C@]45C[C@H]4CC[C@]5(C)[C@H]3CC[C@]12C	2.41	1.23	8	6.25	8.53
Cc1cc2ncn([C@@H]3CC[C@@]4(C)C(=CC[C@H]5[C@@H]6C[C@@H]7O[C@]8(CC[C@@H](C)CO8)[C@@H](C)[C@@H]7[C@@]6(C)CC[C@@H]54)C3)c2cc1C	> 20	> 20	> 20	> 20	> 20
C[C@]12CC[C@H]3[C@@H](CC=C4C[C@@H](O)CC[C@@]43C)[C@@H]1CC[C@@H]2n1ccnc1	> 20	> 20	> 20	> 20	> 20
